{"source": "patent US20240385182A1", "about": "“MASKED FLUOROGENIC LIPID COMPOUNDS, LIPID PARTICLES COMPRISING THE SAME, AND METHODS OF USE THEREOF” (Rutgers, The State University of New Jersey, priority 2023, published 2024)", "assay": "Photophysical characterization of probes and uncaged forms (relative fluorescence quantum yield, extinction coefficient, brightness)", "format": "physicochemical", "method_in_brief": "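Relative fluorescence quantum yields of caged probes and uncaged forms, referenced to coumarin 343 (ΦF 0.63 in ethanol) for triazole-coumarins and fluorescein (ΦF 0.79 in ethanol) for triazole-fluoresceins. Measured in Tris 50 mM, pH 7.5; coumarin largely aryloxide (TEG-TC pKa 7.1±0.1 by UV-Vis).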", "data": [{"smiles": "CCCCCCCCCCCCCCCC(=O)OCC(COP(=O)([O-])OCC[N+](C)(C)Cc1cn(-c2cc3ccc(OC(=O)Oc4ccc(CCC(=O)C(F)(F)F)cc4)cc3oc2=O)nn1)OC(=O)CCCCCCCCCCCCCCC", "note": "(racemic) [DPPC-TC-ONOO^−]", "values": [{"measurement": "Emmax", "value": 471.2, "unit": "nm"}, {"measurement": "Exmax", "value": 395.0, "unit": "nm"}, {"measurement": "Ext. Coeff.", "value": 2784, "unit": "M⁻¹ cm⁻¹"}]}]}
